In US20190367448A1, “TREATMENT OF SLEEP-WAKE DISORDERS” (SK Biopharmaceuticals Co., Ltd., priority 2005, published 2019):

How the values were obtained:
[1] = system: male adult Sprague Dawley rats; assay: Sleep-wake organization in rats, polysomnographic recording (EEG, EOG, EMG, body movement) for 16 hours after acute i.p. administration; assay type: in vivo, rat; settings: rats; for Duration (min) Active wake / Duration (min) Deep sleep / Duration (min) Light sleep / Duration (min) Passive wake / Duration (min) REM sleep / Duration (min) intermediate stage / ISWS/TST (%) / Latency (min) ISWS / Latency (min) REM sleep / Latency (min) dSWS / REMS/TST (%) / Shifts (number) Shift from ISWS to AW / Shifts (number) Shift from ISWS to PW / Shifts (number) Shift from REMS to AW / Shifts (number) Shift from REMS to PW / Shifts (number) Shift from dSWS to AW / Shifts (number) Shift from dSWS to PW / Total sleep time TST / dSWS/TST (%): 16 hours recording period
[2] = system: Mice; assay: Spontaneous Locomotor Activity in Mice and Rats model (mice); assay type: in vivo, mouse
[3] = system: Rats; assay: Spontaneous Locomotor Activity in Mice and Rats model (rats); assay type: in vivo, rat
[4] = 3 mg/kg i.p., 16 hours recording
[5] = 10 mg/kg i.p., first 90 minutes of the recording period
[6] = 30 mg/kg i.p., 16 hours recording
[7] = 30 mg/kg i.p., vs vehicle, 16-h post-injection period

NC(=O)OCC(N)Cc1ccccc1 [R228060, (R)-(beta-amino-benzenepropyl) carbamate] was tested, and the “increased drive to wakefulness from deep sleep” value [1, 4] was “+15%”, the “increased drive to wakefulness from light sleep” value [1, 4] was “+46%” and the “Duration (min) Active wake” value ([1]; 3 mg/kg i.p.) was 290.0 min. The “Duration (min) Deep sleep” value ([1]; 3 mg/kg i.p.) was 125.0 min, the “Duration (min) Light sleep” value ([1]; 3 mg/kg i.p.) was 374.7 min and the “Duration (min) Passive wake” value ([1]; 3 mg/kg i.p.) was 79.5 min. For the same molecule, the “Duration (min) REM sleep” value ([1]; 3 mg/kg i.p.) was 84.0 min, the “Duration (min) intermediate stage” value ([1]; 3 mg/kg i.p.) was 2.9 min and the “ISWS/TST (%)” value ([1]; 3 mg/kg i.p.) was 64.3 ± 3.3%. The “Latency (min) ISWS” value ([1]; 3 mg/kg i.p.) was 15.6 ± 4.1 min, the “Latency (min) REM sleep” value ([1]; 3 mg/kg i.p.) was 66.0 ± 11.8 min and the “Latency (min) dSWS” value ([1]; 3 mg/kg i.p.) was 42.0 ± 8.5 min. The “REMS/TST (%)” value ([1]; 3 mg/kg i.p.) was 14.4 ± 1.0%, the “Shifts (number) Shift from ISWS to AW” value ([1]; 3 mg/kg i.p.) was 217.8 number and the “Shifts (number) Shift from ISWS to PW” value ([1]; 3 mg/kg i.p.) was 78.1 number. The “Shifts (number) Shift from REMS to AW” value ([1]; 3 mg/kg i.p.) was 78.0 number, the “Shifts (number) Shift from REMS to PW” value ([1]; 3 mg/kg i.p.) was 3.7 number and the “Shifts (number) Shift from dSWS to AW” value ([1]; 3 mg/kg i.p.) was 9.7 number. The “Shifts (number) Shift from dSWS to PW” value ([1]; 3 mg/kg i.p.) was 6.6 number, the “Total sleep time TST” value ([1]; 3 mg/kg i.p.) was 586.6 ± 20.0 min and the “dSWS/TST (%)” value ([1]; 3 mg/kg i.p.) was 20.8 ± 3.8%. The “change in total time spent in light sleep” value (shortened to “change … in light sleep”) ([1]; 3 mg/kg, vs vehicle, 16 hours recording) was “+26%”, the “increase in shifts from REM sleep towards active wakefulness” value ([1]; 10 mg/kg i.p., 16 hours recording) was “+16%” and the “Duration (min) Active wake” value ([1]; 10 mg/kg i.p.) was 305.5 min. The “Duration (min) Deep sleep” value ([1]; 10 mg/kg i.p.) was 104.0 min, the “Duration (min) Light sleep” value ([1]; 10 mg/kg i.p.) was 366.6 min and the “Duration (min) Passive wake” value ([1]; 10 mg/kg i.p.) was 73.4 min. For the same molecule, the “Duration (min) REM sleep” value ([1]; 10 mg/kg i.p.) was 102.3 min, the “Duration (min) intermediate stage” value ([1]; 10 mg/kg i.p.) was 5.2 min and the “ISWS/TST (%)” value ([1]; 10 mg/kg i.p.) was 63.5 ± 2.7%. The “Latency (min) ISWS” value ([1]; 10 mg/kg i.p.) was 30.4 ± 7.9 min, the “Latency (min) REM sleep” value ([1]; 10 mg/kg i.p.) was 87.5 ± 14.5 min and the “Latency (min) dSWS” value ([1]; 10 mg/kg i.p.) was 127.2 ± 67.1 min. The “REMS/TST (%)” value ([1]; 10 mg/kg i.p.) was 17.8 ± 1.0%, the “Shifts (number) Shift from ISWS to AW” value ([1]; 10 mg/kg i.p.) was 204.5 number and the “Shifts (number) Shift from ISWS to PW” value ([1]; 10 mg/kg i.p.) was 84.4 number. The “Shifts (number) Shift from REMS to AW” value ([1]; 10 mg/kg i.p.) was 94.1 number, the “Shifts (number) Shift from REMS to PW” value ([1]; 10 mg/kg i.p.) was 8.9 number and the “Shifts (number) Shift from dSWS to AW” value ([1]; 10 mg/kg i.p.) was 4.2 number. The “Shifts (number) Shift from dSWS to PW” value ([1]; 10 mg/kg i.p.) was 12.5 number, the “Total sleep time TST” value ([1]; 10 mg/kg i.p.) was 578.1 ± 22.6 min and the “dSWS/TST (%)” value ([1]; 10 mg/kg i.p.) was 17.7 ± 3.1%. The deep sleep duration [1, 5] was “significant decrease”, the “time spent in active wakefulness” value [1, 5] was “increase” and the “change … in light sleep” value ([1]; 10 mg/kg, vs vehicle, 16 hours recording) was “+24%”. The “overall profile of effects compared with amphetamine at 1 mg/kg (effect pattern, size and duration)” value ([1]; 30 mg/kg) was “remarkably similar”, the “rebound effect (increase in time spent in deep sleep), hours following administration” value ([1]; 30 mg/kg) was 4 to 10 h and the “mean durations of the sleep wake states (active wakefulness, passive wakefulness, light sleep, REM sleep)” value ([1]; 30 mg/kg i.p.) was “not modified”. The “change in number of REM sleep epochs” value [1, 6] was −24%, the “change in number of active wake epochs” value [1, 6] was “+19%” and the “change in number of light sleep epochs” value [1, 6] was −23%. For the same molecule, the “change in number of passive wakefulness epochs” value [1, 6] was −30%, the “Duration (min) Active wake” value ([1]; 30 mg/kg i.p.) was 371.6 min and the “Duration (min) Deep sleep” value ([1]; 30 mg/kg i.p.) was 214.9 min. For the same molecule, the “Duration (min) Light sleep” value ([1]; 30 mg/kg i.p.) was 235.8 min, the “Duration (min) Passive wake” value ([1]; 30 mg/kg i.p.) was 57.3 min and the “Duration (min) REM sleep” value ([1]; 30 mg/kg i.p.) was 72.9 min. For the same molecule, the “Duration (min) intermediate stage” value ([1]; 30 mg/kg i.p.) was 4.0 min, the “ISWS/TST (%)” value ([1]; 30 mg/kg i.p.) was 44.9 ± 2.9% and the “Latency (min) ISWS” value ([1]; 30 mg/kg i.p.) was 73.6 ± 25.7 min. For the same molecule, the “Latency (min) REM sleep” value ([1]; 30 mg/kg i.p.) was 251.8 ± 32.0 min, the “Latency (min) dSWS” value ([1]; 30 mg/kg i.p.) was 174.6 ± 12.3 min and the “REMS/TST (%)” value ([1]; 30 mg/kg i.p.) was 13.7 ± 1.3 %. For the same molecule, the “Shifts (number) Shift from ISWS to AW” value ([1]; 30 mg/kg i.p.) was 221.9 number, the “Shifts (number) Shift from ISWS to PW” value ([1]; 30 mg/kg i.p.) was 74.2 number and the “Shifts (number) Shift from REMS to AW” value ([1]; 30 mg/kg i.p.) was 65.1 number. For the same molecule, the “Shifts (number) Shift from REMS to PW” value ([1]; 30 mg/kg i.p.) was 4.1 number, the “Shifts (number) Shift from dSWS to AW” value ([1]; 30 mg/kg i.p.) was 8.7 number and the “Shifts (number) Shift from dSWS to PW” value ([1]; 30 mg/kg i.p.) was 17.6 number. The “Total sleep time TST” value ([1]; 30 mg/kg i.p.) was 527.0 ± 7.9 min, the “dSWS/TST (%)” value ([1]; 30 mg/kg i.p.) was 39.2 ± 2.9 % and the active wakefulness ([1]; 30 mg/kg i.p., first 3 hours following the administration) was “significant enhancement”. For the same molecule, the “change in total time spent in REM sleep” value [1, 7] was −25%, the “change in total time spent in active wakefulness” value [1, 7] was “+19%” and the “change … in light sleep” value [1, 7] was −20%. The “change in total time spent in passive wakefulness” value [1, 7] was −29%, the “active wakefulness at the expense of time spent in light sleep, deep sleep and REM sleep” value ([1]; 30 mg/kg, first 3 to 4 hours after the administration) was “strongly increased” and the “changes in vigilance states” value ([1]; 3 and 10 mg/kg) was “Minor changes”. For the same molecule, the “duration of central activity” value ([1]; after intraperitoneal injection) was “at least 4 hours”, the “peak in effect, time post administration” value ([1]; i.p.) was “around 2 hours” and the onset of activity ([1]; i.p., time following administration) was roughly 30 min. The “Spontaneous Locomotor Activity” value [2] was “stimulant or energizing effects” and the “Spontaneous Locomotor Activity” value [3] was “stimulant or energizing effects”.
